According to the supplement of paper PMC10307832:

Experiments:
Assay in all cases: relative viability (nuclei count vs DMSO), 5 days (fraction); higher = more cells survive
[1] = compound: C1=CC=C2C(=C1)N=C(S2)C(C#N)C3=NC(=NC=C3)NCCC4=CN=CC=C4 + O=C(CCCCCCC(=O)Nc1ccccc1)NO [Vorinostat] (partner 1 µM)
How it was run: (§1)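 Relative viability is defined as nuclei in treated wells over nuclei in vehicle wells. Duplicate plates were run and medians reported. Lung cancer cell lines in 1536-well plates were dosed by pin tool one day after seeding, with one drug or with a fixed anchor-drug dose plus five library-drug doses (not always all listed) in √10 steps, and nuclei were counted after 5 days.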

NVP-TAE684 + Tozasertib = compound: COc1cc(N2CCC(N3CCN(C)CC3)CC2)ccc1Nc1ncc(Cl)c(Nc2ccccc2S(=O)(=O)C(C)C)n1 [NVP-TAE684] + Cc1cc(Nc2cc(N3CCN(C)CC3)nc(Sc3ccc(NC(=O)C4CC4)cc3)n2)n[nH]1 [Tozasertib] (partner 0.1 µM)
How it was run: as §1

NVP-TAE684 + Pictilisib = compound: COc1cc(N2CCC(N3CCN(C)CC3)CC2)ccc1Nc1ncc(Cl)c(Nc2ccccc2S(=O)(=O)C(C)C)n1 [NVP-TAE684] + CS(=O)(=O)N1CCN(Cc2cc3nc(-c4cccc5[nH]ncc45)nc(N4CCOCC4)c3s2)CC1 [Pictilisib] (partner 1 µM)
How it was run: as §1

Vandetanib + Vorinostat = compound: COc1cc2/c(=N/c3ccc(Br)cc3F)nc[nH]c2cc1OCC1CCN(C)CC1 [Vandetanib] + O=C(CCCCCCC(=O)Nc1ccccc1)NO [Vorinostat] (partner 1 µM)
How it was run: as §1

Row | Cell Line | relative viability ([1]; first compound 0.005 µM) | relative viability ([1]; first compound 0.01581 µM) | relative viability ([1]; first compound 0.05 µM) | relative viability ([1]; first compound 0.1581 µM) | relative viability ([1]; first compound 0.5 µM) | relative viability (NVP-TAE684 + Tozasertib; first compound 0.2 µM) | relative viability (NVP-TAE684 + Tozasertib; first compound 0.6325 µM) | relative viability (NVP-TAE684 + Tozasertib; first compound 2 µM) | relative viability (NVP-TAE684 + Pictilisib; first compound 0.2 µM) | relative viability (NVP-TAE684 + Pictilisib; first compound 0.6325 µM) | relative viability (NVP-TAE684 + Pictilisib; first compound 2 µM) | relative viability (Vandetanib + Vorinostat; first compound 0.02 µM) | relative viability (Vandetanib + Vorinostat; first compound 0.06325 µM) | relative viability (Vandetanib + Vorinostat; first compound 0.2 µM) | relative viability (Vandetanib + Vorinostat; first compound 0.6325 µM) | relative viability (Vandetanib + Vorinostat; first compound 2 µM)
1 | NCI-H647 | 0.427 | 0.553 | 0.411 | 0.661 | 0.605 | 0.0998 | 0.288 | 0.115 | 0.429 | 0.381 | 0.473 | 0.514 | 0.569 | 0.684 | 0.715 | 0.432
2 | NCI-H650 | 0.389 | 0.392 | 0.499 | 0.488 | 0.393 | 0.669 | 0.69 | 0.498 | 0.789 | 0.69 | 0.497 | 0.585 | 0.533 | 0.514 | 0.544 | 0.341
3 | NCI-H661 | 0.81 | 0.85 | 0.73 | 0.831 | 0.862 | 0.373 | 0.341 | 0.352 | 0.449 | 0.426 | 0.429 | 0.736 | 0.798 | 0.783 | 0.867 | 0.915
4 | NCI-H727 | 1.38 | 1.08 | 1.1 | 1.38 | 1.37 | 0.495 | 0.532 | 0.32 | 0.373 | 0.388 | 0.261 | 1.11 | 1.18 | 1.13 | 1.26 | 0.992
5 | NCI-H838 | 0.751 | 0.747 | 0.661 | 0.707 | 0.681 | 0.311 | 0.233 | 0.226 | 0.408 | 0.356 | 0.235 | 0.731 | 0.679 | 0.772 | 0.78 | 0.68
6 | NCI-H1355 | 0.596 | 0.625 | 0.649 | 0.67 | 0.564 | 0.521 | 0.471 | 0.301 | 0.467 | 0.323 | 0.343 | 0.603 | 0.565 | 0.671 | 0.624 | 0.649
7 | NCI-H1395 | 0.556 | – | 0.707 | 0.788 | 0.611 | 0.819 | 0.699 | 0.626 | 0.659 | 0.61 | 0.589 | 0.622 | 0.881 | 0.495 | 0.63 | 0.596
8 | NCI-H1437 | 0.896 | 0.871 | 0.813 | 0.824 | 0.755 | 0.433 | 0.396 | 0.311 | 0.369 | 0.433 | 0.297 | 0.824 | 0.819 | 0.866 | 0.937 | 0.995
9 | NCI-H1650 | 0.472 | 0.597 | 0.535 | 0.676 | 0.439 | 0.317 | 0.385 | 0.165 | 0.564 | 0.405 | 0.161 | 0.525 | 0.502 | 0.599 | 0.544 | 0.452
10 | NCI-H1651 | 0.555 | 0.538 | 0.572 | 0.609 | 0.559 | 0.931 | 0.695 | 0.576 | 0.366 | 0.629 | 0.402 | 0.53 | 0.618 | 0.62 | 0.535 | 0.593
11 | NCI-H1666 | 0.959 | 0.922 | 1.07 | 1.04 | 1 | 0.569 | 0.63 | 0.488 | 0.31 | 0.348 | 0.274 | 1.06 | 0.968 | 1.09 | 0.964 | 0.993
12 | NCI-H1734 | 0.7 | 0.785 | 0.758 | 1.06 | 0.78 | 0.283 | 0.261 | 0.196 | 0.422 | 0.364 | 0.336 | 0.87 | 0.71 | 0.755 | 0.852 | 0.815
13 | NCI-H1755 | 0.803 | 0.88 | 0.74 | 0.91 | 0.713 | 0.601 | 0.585 | 0.473 | 0.5 | 0.414 | 0.408 | 0.768 | 0.818 | 0.773 | 0.709 | 0.709
14 | NCI-H1793 | – | 0.465 | 0.713 | 0.829 | 0.811 | 0.346 | 0.323 | 0.25 | 0.426 | 0.326 | 0.519 | 0.716 | 0.618 | 0.651 | 0.648 | 0.624
15 | NCI-H1915 | – | 0.515 | 0.519 | 0.519 | 0.512 | 0.487 | 0.415 | 0.492 | 0.98 | 0.932 | 0.874 | 0.497 | 0.512 | 0.535 | 0.532 | 0.505
16 | NCI-H1944 | 0.638 | 0.521 | 0.537 | 0.558 | 0.52 | 0.271 | 0.248 | 0.225 | 0.334 | 0.308 | 0.3 | 0.51 | 0.542 | 0.526 | 0.476 | 0.602
17 | NCI-H1975 | 0.712 | 0.743 | 0.747 | 0.834 | 0.571 | 1.01 | 0.732 | 0.206 | 0.281 | 0.231 | 0.191 | 0.71 | 0.646 | 0.709 | 0.665 | 0.636
